Reference: article PMC9055962 (RSC Advances, 2020)
In brackets after ≈: the same amount, converted by molar mass.

Legend:
E. coli ATCC 25922 = assay: Broth microdilution MIC / MBC assay, E. coli; assay type: cell-based; conditions: Escherichia coli; for MIC: ATCC25922, 24 h, read-out: Antibacterial activity MIC; for MBC: ATCC25922, read-out: Antibacterial activity MBC
S. aureus ATCC 25923 = assay: Broth microdilution MIC / MBC assay, S. aureus; assay type: cell-based; conditions: Staphylococcus aureus; for MIC: ATCC25923, 24 h, read-out: Antibacterial activity MIC; for MBC: ATCC25923, read-out: Antibacterial activity MBC
S. aureus = conditions: cited from earlier work

| MIC (E. coli ATCC 25922) [µM] | MIC (S. aureus ATCC 25923) [µM] | Compound | MBC (E. coli ATCC 25922) [µM] | MBC (S. aureus ATCC 25923) [µM] | minimum inhibitory concentration (MIC) (S. aureus) [µM] |
| --- | --- | --- | --- | --- | --- |
| > 1110 | > 1110 | O=C(O)/C=C/c1ccc(O)c(O)c1 [CA, caffeic acid] | > 1110 | > 1110 | – |
| 3 (≈ 0.784 µg/mL) | 383 (≈ 100 µg/mL) | CCn1cc(C(=O)O)c(=O)c2cc3c(cc21)OCO3 [OA, oxolinic acid] | 6 (≈ 1.57 µg/mL) | > 766 | – |
| – | – | Fc-WRWRW | – | – | 7 |
| – | – | WRWRWR | – | – | 16 |
